# Experimental data published in patent US11214835B1, “Methods and compositions for diagnosis and management of neurodegerative diseases” (UNIVERSITY OF SOUTH FLORIDA, priority 2017, dated 2022).
# Read-outs that look alike come from different tables or passages of the source.
# Tests used:
# [1] = test system: HT22 cells; experiment: Toxicity of side-chain derivatives to HT22 cells (preliminary data)
# [2] = test system: GAS5; experiment: Binding of side-chain derivatives to GAS5 (preliminary data)
# [3] = test system: GAS5 lncRNA; experiment: γ-AApeptide OBOC combinatorial library screen with fluorescein tagged GAS5 oligonucleotide, hits validated in vitro; type: binding; conditions: fluorescein tagged GAS5 oligonucleotide probe, tRNA as control
# Text: The interaction between UPF1 and GAS5 was disrupted using a γ-AApeptide based one-bead-one-compound (OBOC) combinatorial library (Wu H, Li Y, Bai G, Niu Y, Qiao Q, Tipton J D, Cao C, Cai J. gamma-AApeptide-based small-molecule ligands that inhibit Abeta aggregation. Chemical communications. 2014; 50(40):5206-8. doi: 10.1039/c3cc46685j. PubMed PMID: 24158240). The γ-AApeptide is a peptidomimetic with side chains for chemical diversity and are resistant to proteolytic cleavage. To screen the compound library, a probe that contained a fluorescein tagged oligonucleotide was synthesized. The probe spanned 30 nucleotides on either side of the UAA sequences on GAS5 (FIG. 13) The fluorescein was attached to the 5′end (beginning of oligonucleotide probe sequence). The nucleotide sequence within the GAS5 IncRNA that the oligonucleotide probe binds to can be about 100% identical to […] (SEQ ID NO: 4), which is nucleotides 541 to 651 of SEQ ID NO: 1. The underlined regions indicate the UAA that is the target regions. As such, the oligonucleotide probe was designed to flank both sides of these target regions.
# The length of oligonucleotide was required to maintain stem loop structure to specifically bind to GAS5. Further, we modeled the oligonucleotide (RNAfold software) to evaluate its folding and verified absence of any unwanted secondary structures. The backbone was modified by 2′-MOE (2′-O-methoxyethylribose), which protects it from degradation and a fluoroscein tag was attached to the 5′end to aid in screening. The oligonucleotide probe was used to screen 160,000 molecules in the combinatorial library using tRNA as control (as tRNA has similar stem loop secondary structures). […] The compound having a structure according to Formula 3 was determined to have a chemical formula of C68H92N10O9S, a mass of about 1224.6769, and a molecular weight of 1225.6050. The compound having a structure according to Formula 14 was determined to have a chemical formula of C63H85N9O13S, a mass of about 1207.5988, and a molecular weight of 1208.4830. […]
# [4] = test system: insulin receptor (IR); experiment: Insulin receptor levels after intranasal insulin treatment; type: in vivo, mouse
# Text: (§1) Diabetes increases the risk for impaired cognitive function and dementia by 47%. Patients with T2DM have cognitive deficits affecting verbal and nonverbal memory, attention, information processing speed, and executive function. To assess the cognitive function with respect to insulin resistance in vivo, aged diabetic mice BKS.Cg-+ Lepr^db/+ Lepr^db/OlaHsd (Older db/db mice from Harlan were used; 11 months—as this mouse model has lower life span) along with their normal age-matched controls. We measured the levels of GAS5 and insulin receptor (IR) in young (4 months) and db/db mice along with their age-matched control mice. The hippocampi of the mice were collected and SYBR Green qPCR was performed. […] Intranasal insulin delivery is a noninvasive method that bypasses the blood-brain barrier and delivers insulin to the brain and the spinal cord. Biologically effective concentrations of insulin can be achieved without systemic side effects.
# (§2) After intranasal administration, insulin and peptide analogues begin to accumulate in the CSF within 30 minutes. Intranasal insulin directly improves learning and memory and has no effect on circulating blood glucose levels. Thus, the effects may reflect activation of neuronal insulin signaling pathways. […] Errors (incorrect arm choices) and escape latency were recorded for each daily trial (FIGS. 3B-3C).
# [5] = test system: aged normal and aged diabetic (db/db) mice; experiment: Radial arm water maze (RAWM) after intranasal insulin in aged normal and db/db mice; type: in vivo, mouse; conditions: 1 unit/ml daily for 3 weeks, both normal aged and aged diabetic mice
# Text: as §1, §2
# [6] = after intranasal administration; cited from earlier work
# [7] = test system: GAS5; experiment: GAS5 levels in NDM adipocytes after insulin, real-time qPCR; type: cell-based, human; conditions: about 10 nM, 24 hours
# Text: Depletion of GAS5 decreases glucose uptake: Adipose tissue is the primary target for insulin-mediated glucose uptake. […] To maintain reproducibility over a larger number of experiments, adipose stem cells derived from normal or diabetic patients were purchased from Zenbio (BMI 20-24, Nondiabetic HbA1C 5.9 (hereafter referred as NDM); T2DM HbA1c 8.5 (hereafter referred as DM)). The adipose stem cells (ASC) were differentiated in vitro to mature adipocytes and used in experiments. GAS5 siRNA (10 nM, Ambion 332778, validated; scrambled siRNA as control) was transfected in NDM pre-adipocytes for 48 h, differentiated to mature NDM adipocytes for 8 days and knockdown confirmed by GAS5 SYBR Green qPCR. We determined the effect of GAS5 depletion on glucose uptake by NDM adipocytes. Cells were serum starved, 10 nM insulin was added to cells for 30 minutes and [^3H]-deoxy-2-D-Glucose uptake was measured. Results indicated a decrease in glucose uptake in GAS5 depleted NDM adipocytes ***p<0.001, highly significant using two-tailed students t-test.
# About 10 nM insulin was added to NDM adipocytes for 24 hours. […] Separately, GAS5 was depleted in NDM adipocytes using GAS5 siRNA as described above to evaluate the insulin receptor mediated PI3K→AKT pathway. Whole cell lysates were evaluated by western blot analysis using antibodies against p-AKT and total AKT.
# [8] = test system: neurons; experiment: Immunohistochemistry after insulin treatment; type: in vivo, mouse
# Method: FIGS. 4A-4B show panels fluorescent microscopic images of the results from Immuno histochemical analysis post insulin treatment in neron cells. The bar in the images of the panel of FIG. 4B is 20 μm.
# After intranasal administration, insulin and peptide analogues begin to accumulate in the CSF within 30 minutes. Intranasal insulin directly improves learning and memory and has no effect on circulating blood glucose levels. Thus, the effects may reflect activation of neuronal insulin signaling pathways. The age-matched control and db/db mice cohorts were treated with intranasal insulin (1 unit/ml, daily for 3 weeks) and the radial arm water maze (RAWM) was used for cognitive assessment. Errors (incorrect arm choices) and escape latency were recorded for each daily trial (FIGS. 3B-3C).
# [9] = test system: HT22 cells; conditions: mouse
compound,measurement,setting,value
CC(C)C[C@H]1CN(CC(N)=O)C(=O)CCSCc2ccc(cc2)C(=O)N[C@@H](C)CN(C(=O)CCc2ccccc2)CC(=O)N[C@@H](CC(C)C)CN(C(=O)CC2CC2)CC(=O)N[C@@H](CCCCN)CN(C(=O)CCC2CCCCC2)CC(=O)N1 [YS-D-66],toxicity to HT22 cells,[1],not toxic to HT22 cells
same,binding to GAS5,[2],bound efficiently to GAS5
CC(C)C[C@H]1CN(C(=O)CCc2ccccc2)CC(=O)N[C@@H](Cc2ccccc2)CN(C(=O)CC2CC2)CC(=O)N[C@@H](Cc2ccccc2)CN(CC(N)=O)C(=O)CCSCc2ccc(cc2)C(=O)N[C@@H](CCCCN)CN(C(=O)CCc2ccccc2)CC(=O)N1 [YS-D-68],toxicity to HT22 cells,[1],not toxic to HT22 cells
same,binding to GAS5,[2],bound efficiently to GAS5
C[C@H]1CN(C(=O)CC2CC2)CC(=O)N[C@@H](CCC(=O)O)CN(C(=O)CCC2CCCCC2)CC(=O)N[C@@H](Cc2ccccc2)CN(CC(N)=O)C(=O)CCSCc2ccc(cc2)C(=O)N[C@@H](Cc2ccccc2)CN(C(=O)CCC(=O)O)CC(=O)N1 [Formula 14],ability to bind GAS5 (identified and validated from library screen),[3],able to bind GAS5
insulin,levels of IR,[4],did not increase
same,"cognitive performance in RAWM (errors, escape latency)",[5],improved the cognitive performance
same,time to begin to accumulate in the CSF,[6],≤ 30 min
same,GAS5 levels in NDM adipocytes,[7],increase in GAS5 levels
same,neurogenesis,[8],increased
same,neuronal proliferation,[8],increased
CC(C)C[C@H]1CN(C(=O)CCc2ccccc2)CC(=O)N[C@@H](Cc2ccccc2)CN(C(=O)CC2CC2)CC(=O)N[C@@H](Cc2ccccc2)CN(CC(N)=O)C(=O)CCSCc2ccc(cc2)C(=O)N[C@@H](Cc2ccccc2)CN(C(=O)CCCN)CC(=O)N1 [YS-D-69],toxicity to HT22 cells,[1],not toxic to HT22 cells
same,binding to GAS5,[2],bound efficiently to GAS5
NCCCC[C@H]1CN(C(=O)CCCN)CC(=O)N[C@@H](CCC(=O)O)CN(CC(N)=O)C(=O)CCSCc2ccc(cc2)C(=O)N[C@@H](CCCCN)CN(C(=O)CCC(=O)O)CC(=O)N[C@@H](Cc2ccccc2)CN(C(=O)CCc2ccccc2)CC(=O)N1 [YS-D-70],binding to GAS5,[2],bound efficiently to GAS5
same,toxicity to HT22 cells,[9],not toxic to HT22 cells
